Experimental data: the supplement of paper PMC10307832

Tests used:
Assay in all cases: relative viability (nuclei count vs DMSO), 5 days (fraction); higher = more cells survive
[1] = compound: CC1CC(=O)N(C2=CN=C(N=C2N1C3CCCC3)NC4=C(C=C(C=C4)C(=O)NC5CCN(CC5)C)OC)C [NPK76-II-72-1] + CS(=O)(=O)N1CCN(Cc2cc3nc(-c4cccc5[nH]ncc45)nc(N4CCOCC4)c3s2)CC1 [Pictilisib] (partner 1 µM)
Procedure, shortened: (§1)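 Lung cancer cell lines were seeded in 1536-well plates and dosed by pin tool the next day, with either a single drug or a fixed anchor-drug dose combined with five library-drug doses (not always all listed) spaced in √10 steps. Five days later, one step fixed the cells and stained their nuclei (final 0.05% Triton X-100, 1% formaldehyde, 1 ug/ml Hoechst), and nuclei were counted on 4× images. Relative viability is the nuclei count in treated wells divided by the count in vehicle wells, and each value is the median of duplicate plates.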

BI-2536 + Phenformin = compound: CC[C@@H]1C(=O)N(C)c2cnc(Nc3ccc(C(=O)NC4CCN(C)CC4)cc3OC)nc2N1C1CCCC1 [BI-2536] + N=C(N)NC(=N)NCCc1ccccc1 [Phenformin] (partner 250 µM)
Procedure, shortened: as §1

NPK76-II-72-1 + AZD7762 = compound: CC1CC(=O)N(C2=CN=C(N=C2N1C3CCCC3)NC4=C(C=C(C=C4)C(=O)NC5CCN(CC5)C)OC)C [NPK76-II-72-1] + NC(=O)Nc1cc(-c2cccc(F)c2)sc1C(=O)N[C@H]1CCCNC1 [AZD7762] (partner 0.2 µM)
Procedure, shortened: as §1

[2] = compound: CC1CC(=O)N(C2=CN=C(N=C2N1C3CCCC3)NC4=C(C=C(C=C4)C(=O)NC5CCN(CC5)C)OC)C [NPK76-II-72-1] + CC(=O)Nc1cccc(-n2c(=O)n(C3CC3)c(=O)c3c(Nc4ccc(I)cc4F)n(C)c(=O)c(C)c32)c1 [Trametinib] (partner 0.02 µM)
Procedure, shortened: as §1

Cell Line	relative viability ([1]; first compound 0.01 µM)	relative viability ([1]; first compound 0.03162 µM)	relative viability ([1]; first compound 0.1 µM)	relative viability ([1]; first compound 1 µM)	relative viability (BI-2536 + Phenformin; first compound 0.01 µM)	relative viability (BI-2536 + Phenformin; first compound 0.03162 µM)	relative viability (BI-2536 + Phenformin; first compound 0.1 µM)	relative viability (BI-2536 + Phenformin; first compound 0.3162 µM)	relative viability (BI-2536 + Phenformin; first compound 1 µM)	relative viability (NPK76-II-72-1 + AZD7762; first compound 0.01 µM)	relative viability (NPK76-II-72-1 + AZD7762; first compound 0.03162 µM)	relative viability (NPK76-II-72-1 + AZD7762; first compound 0.1 µM)	relative viability (NPK76-II-72-1 + AZD7762; first compound 0.3162 µM)	relative viability (NPK76-II-72-1 + AZD7762; first compound 1 µM)	relative viability ([2]; first compound 0.01 µM)	relative viability ([2]; first compound 0.03162 µM)	relative viability ([2]; first compound 0.1 µM)	relative viability ([2]; first compound 0.3162 µM)	relative viability ([2]; first compound 1 µM)	relative viability ([1]; first compound 0.3162 µM)
NCI-H650	0.804	0.88	0.71	1.21	0.462	0.438	0.163	0.154	0.14	1.13	0.997	0.97	0.896	0.995	1.14	0.996	0.957	0.997	1.01	–
NCI-H1666	0.305	0.55	0.35	0.469	0.564	0.576	0.435	0.313	0.341	0.84	0.861	0.852	0.752	1.01	0.851	0.859	0.847	0.732	1.05	0.381
NCI-H2085	0.494	0.385	0.494	0.507	0.785	0.69	0.307	0.183	0.243	0.923	1.02	0.891	1	1.16	0.505	0.522	0.532	0.528	0.541	0.398
NCI-H1734	0.427	0.478	0.383	0.446	0.393	0.24	0.159	0.151	0.167	0.531	0.557	0.676	0.532	0.667	0.621	0.645	0.587	0.638	0.643	0.411
NCI-H2126	0.508	0.517	0.457	0.476	0.5	0.495	0.231	0.279	0.247	0.95	1.07	0.99	0.989	1.01	0.541	0.567	0.563	0.537	0.598	0.507
EMC-BAC-2	0.488	0.6	0.558	0.544	0.547	0.477	0.352	0.155	0.208	1.02	1.07	1.02	1.09	1.17	0.836	0.955	0.845	0.81	0.952	0.566
NCI-H1993	0.811	0.804	0.779	0.759	0.493	0.432	0.52	0.41	0.475	0.739	0.706	0.97	0.713	0.914	0.551	0.549	0.624	0.57	0.482	0.88
NCI-H647	0.38	0.427	0.401	0.466	0.423	0.349	0.107	0.059	0.0765	0.4	0.476	0.578	0.434	0.379	0.443	0.436	0.418	0.527	0.54	0.406
